Starred links: 1 amine or outer side, 2 acyl side, 3 side chain; linkers in the order of their positions; H or OH if unused. Residues, ends and D or L forms follow the SMILES beside them. Groups on a side chain read outwards from the residue. *: point of attachment. Glutaryl = O=C(CCCC(=O)[*:2])[*:1]; NHNH2 = NN*
Legend:
Assay type in all cases: cell-based
Hek293 cells = experiment: EGFP mRNA delivery, robotic library screening, Hek293
Procedure: (§1) Cells were seeded in a 96 well plate the day before the experiment at a concentration of 50,000 cell/mL (100 μL/w) in DMEM+10% FBS+1% Gln-Abt. For robotic library screening, the delivery of EGFP-mRNA (from TriLink, fully substituted with 5-methoxyuridine, capped and polyadenylated; TriLink, CleanCap® EGFP mRNA (5moU), ref. L-7201) in six different cell lines was performed. Amphiphilic molecule stock solutions were prepared in DMSO as described above and diluted in DMEM to afford a range of concentrations. The solutions of EGFP-mRNA/amphiphilic molecule complexes were freshly prepared prior to the transfection experiments. 35 μL of the corresponding amphiphile were added to 10 μL of a solution of EGFP-mRNA at 10 ng/μL in DMEM. The mixture was shaken for 30 min at room temperature before the addition to the cells. The cell medium was aspirated, and cells were washed with PBS twice. Cells were covered with 39 μL of DMEM and 11 μL of the complex's solution were added to the cells and incubated for 4 h (final concentration of peptide=2.5, 5 and 10 μM; final concentration of EGFP-mRNA=25 ng/well). After the incubation, the medium was replaced by 100 μL of fresh DMEM supplemented with 10% FBS. The total EGFP fluorescence was quantified after 72 h in a well plate reader. Amphiphile transfection efficiency was compared and normalized to Lipofectamine® MessengerMax efficiency (value of 1 in Tables 1-5 and 7; double underlined numbers). All experiments were done in triplicate.
(§2) Tables 1-7: RLuc (pDNA) or EGFP (mRNA) expression levels were normalized to Lipofectamine reagents (value=1) and expressed as fold-times signal increase. In the case of siRNA, the siRNA treated cells fluorescence was compared with siMOCK control fluorescence, while Cas9-RNP mediated knockout was measured against the fluorescence of untreated cells. In both siRNA and Cas9-RNP, values are expressed as % fluorescence reduction. Amphiphile concentration was 5 μM in all cases. All experiments were performed in triplicate.
(§3) Tables 14-19 show the mean (triplicates) fluorescence intensity measured after the transfection of EGFP mRNA by different amphiphiles at different concentrations in a variety of cell lines. Background fluorescence values, accounted by untreated control cells, were subtracted for processing.

[1] = system: Hek293 cells expressing EGFP; experiment: Cas9-RNP delivery against EGFP (gene editing, plate reader), Hek293
Procedure: To generate an EGFP expressing HeLa cell line, HeLa cells were transfected with EGFP pDNA (pEGFP-C1, Clontech) and stable transfectants were selected with 400 μg/mL of G-418 (Millipore). Green clones were selected by epifluorescence microscopy and tested for EGFP expression stability through several passages. […] All other EGFP-expressing cell lines were obtained in a similar way from parent non-EGFP-expressing cell lines.
Cells expressing EGFP were seeded in a 96 well plate the day before the experiment at a concentration of 50,000 cell/mL (100 μL/w) in DMEM+10% FBS+1% Gln-Abt. For robotic library screening, the delivery of Cas9-RNP against EGFP (RNP designed to knock-out the gene encoding for the enhanced green fluorescent protein (EGFP)) was performed. For RNP assembly, 9.2 μL of crRNA and 9.2 μL of tracrRNA were mixed in 211.6 μL of Nuclease-Free Duplex Buffer (IDT), incubated for 5 min at 95° C. and slowly cooled at rt (see I. Lostalé-Seijo, et al. Peptide/Cas9 nanostructures for ribonucleoprotein cell membrane transport and gene edition, Chem. Sci., 2017). Cas9 protein was dissolved in DMEM at a final concentration of 4 μM and equal volumes of the RNA complex and Cas9 were mixed and incubated for 5 min at rt. 75 μL of the corresponding amphiphile concentrations were added to 5 μL of RNP at 2 μM. The mixture was shaken for 30 min at room temperature before the addition to the cells. The cell medium was aspirated, and cells were washed twice with PBS. Cells were covered with 30 μL of DMEM and 20 μL of the RNP/amphiphile complexes were added to the cells (final peptide concentrations=2.5, 5 and 10 μM; final Cas9-RNP concentration=50 nM) and incubated for 4 h. After the incubation, the medium was replaced by 100 μL of fresh DMEM supplemented with 10% FBS. The total EGFP fluorescence was quantified after 72 h in a plate reader (FIG. 2, Table 1 (right) and Table 6). All experiments were done in triplicate. […]
Tables 26-31 show the mean (triplicates) percentage of gene editing, accounted by GFP fluorescence intensity decrease (% of reduction), measured after the transfection of Cas9-RNP by different amphiphiles at different concentrations in a variety of cell lines. Background values, accounted by untreated control cells, were subtracted for processing.

A549 cells = experiment: EGFP mRNA delivery, robotic library screening, A549
Procedure: as §1, §2, §3

HCT116 cells = experiment: EGFP mRNA delivery, robotic library screening, HCT116
Procedure: as §1, §2, §3

## CC(=O)N[C@@H](CCCNC(=N)N)C(=O)N[C@@H](CCCCNC(=O)CCCC(=O)NN)C(=O)N[C@@H](Cc1c[nH]cn1)C(=O)N[C@@H](CCCNC(=N)N)C(=O)N[C@@H](CCCCNC(=O)CCCC(=O)NN)C(=O)N[C@@H](CCCCNC(=O)CCCC(=O)NN)C(=O)N[C@@H](Cc1c[nH]cn1)C(N)=O [7.3(L-H), Ac-RK*HRK*K*H-NH2] (Ac-RK([Glutaryl-NHNH2])HRK([Glutaryl-NHNH2])K([Glutaryl-NHNH2])H-NH2)
Hek293 cells; Dodecanal, 2.5 μM
  mean fluorescence intensity (EGFP mRNA): 1201
Hek293 cells; Dodecanal, 5 μM
  mean fluorescence intensity (EGFP mRNA): 588
Hek293 cells; Dodecanal, 10 μM
  mean fluorescence intensity (EGFP mRNA): 3588
Hek293 cells; Myristoleyl, 2.5 μM
  mean fluorescence intensity (EGFP mRNA): 21438
Hek293 cells; Myristoleyl, 5 μM
  mean fluorescence intensity (EGFP mRNA): 11945
Hek293 cells; Myristoleyl, 10 μM
  mean fluorescence intensity (EGFP mRNA): 1626
Hek293 cells; Oleyl, 2.5 μM
  mean fluorescence intensity (EGFP mRNA): 9690
Hek293 cells; Oleyl, 5 μM
  mean fluorescence intensity (EGFP mRNA): 17787
Hek293 cells; Oleyl, 10 μM
  mean fluorescence intensity (EGFP mRNA): 1626
Hek293 cells; Palmitoleyl, 2.5 μM
  mean fluorescence intensity (EGFP mRNA): 13282
Hek293 cells; Palmitoleyl, 5 μM
  mean fluorescence intensity (EGFP mRNA): 12872
Hek293 cells; Palmitoleyl, 10 μM
  mean fluorescence intensity (EGFP mRNA): 4716
Hek293 cells; Petroselinyl, 2.5 μM
  mean fluorescence intensity (EGFP mRNA): 29561
Hek293 cells; Petroselinyl, 5 μM
  mean fluorescence intensity (EGFP mRNA): 12351
Hek293 cells; Petroselinyl, 10 μM
  mean fluorescence intensity (EGFP mRNA): 6511
[1]; Myristoleyl, 5 μM
  percentage of gene editing, GFP fluorescence intensity decrease (% of reduction): −6%
[1]; Oleyl, 5 μM
  percentage of gene editing, GFP fluorescence intensity decrease (% of reduction): −5%
[1]; Oleyl, 10 μM
  percentage of gene editing, GFP fluorescence intensity decrease (% of reduction): 6%
[1]; Oleyl, 15 μM
  percentage of gene editing, GFP fluorescence intensity decrease (% of reduction): 0%
[1]; Palmitoleyl, 5 μM
  percentage of gene editing, GFP fluorescence intensity decrease (% of reduction): 23%
[1]; Palmitoleyl, 10 μM
  percentage of gene editing, GFP fluorescence intensity decrease (% of reduction): −5%
[1]; Palmitoleyl, 15 μM
  percentage of gene editing, GFP fluorescence intensity decrease (% of reduction): −2%
[1]; Petroselinyl, 5 μM
  percentage of gene editing, GFP fluorescence intensity decrease (% of reduction): 1%
A549 cells; Dodecanal, 2.5 μM
  mean fluorescence intensity (EGFP mRNA): 570
A549 cells; Dodecanal, 5 μM
  mean fluorescence intensity (EGFP mRNA): 375
A549 cells; Dodecanal, 10 μM
  mean fluorescence intensity (EGFP mRNA): 587
A549 cells; Myristoleyl, 2.5 μM
  mean fluorescence intensity (EGFP mRNA): 19549
A549 cells; Myristoleyl, 5 μM
  mean fluorescence intensity (EGFP mRNA): 6729
A549 cells; Myristoleyl, 10 μM
  mean fluorescence intensity (EGFP mRNA): 2718
A549 cells; Oleyl, 2.5 μM
  mean fluorescence intensity (EGFP mRNA): 12392
A549 cells; Oleyl, 5 μM
  mean fluorescence intensity (EGFP mRNA): 4708
A549 cells; Oleyl, 10 μM
  mean fluorescence intensity (EGFP mRNA): 1954
A549 cells; Palmitoleyl, 2.5 μM
  mean fluorescence intensity (EGFP mRNA): 52764
A549 cells; Palmitoleyl, 5 μM
  mean fluorescence intensity (EGFP mRNA): 19296
A549 cells; Palmitoleyl, 10 μM
  mean fluorescence intensity (EGFP mRNA): 3995
A549 cells; Petroselinyl, 2.5 μM
  mean fluorescence intensity (EGFP mRNA): 9125
A549 cells; Petroselinyl, 5 μM
  mean fluorescence intensity (EGFP mRNA): 2712
A549 cells; Petroselinyl, 10 μM
  mean fluorescence intensity (EGFP mRNA): −119
A549 cells; palmitoleyl aldehyde
  mRNA delivery relative to Lipofectamine MessengerMAX: two times better
HCT116 cells; Myristoleyl, 2.5 μM
  mean fluorescence intensity (EGFP mRNA): 76926
HCT116 cells; Myristoleyl, 5 μM
  mean fluorescence intensity (EGFP mRNA): 19128
HCT116 cells; Palmitoleyl, 2.5 μM
  mean fluorescence intensity (EGFP mRNA): 32455
HCT116 cells; Palmitoleyl, 5 μM
  mean fluorescence intensity (EGFP mRNA): 26406
HCT116 cells; Palmitoleyl, 10 μM
  mean fluorescence intensity (EGFP mRNA): 6504
HCT116 cells; Petroselinyl, 2.5 μM
  mean fluorescence intensity (EGFP mRNA): 5653
HCT116 cells; Petroselinyl, 5 μM
  mean fluorescence intensity (EGFP mRNA): 19656
HCT116 cells; Petroselinyl, 10 μM
  mean fluorescence intensity (EGFP mRNA): 9118

## Ac-RK*LRRLLRK*-NH2 (Ac-RK(NHNH2)LRRLLRK(NHNH2)-NH2; not fully specified; printed as Ac-RK*LRRLLRK*-NH2; also: K*2,K*9: native or modified lysine (ε-amide to a linker)) [Peptide 9.2]
[1]; Dodecanal, 5 μM
  percentage of gene editing, GFP fluorescence intensity decrease (% of reduction): −38%
[1]; Dodecanal, 10 μM
  percentage of gene editing, GFP fluorescence intensity decrease (% of reduction): −55%
A549 cells; Myristoleyl, 5 μM
  mean fluorescence intensity (EGFP mRNA): 205
A549 cells; Myristoleyl, 10 μM
  mean fluorescence intensity (EGFP mRNA): −79
HCT116 cells; Dodecanal, 5 μM
  mean fluorescence intensity (EGFP mRNA): 438
HCT116 cells; Myristoleyl, 2.5 μM
  mean fluorescence intensity (EGFP mRNA): 1498
HCT116 cells; Petroselinyl, 5 μM
  mean fluorescence intensity (EGFP mRNA): 662

## Ac-RRLK*RLLRRLK*RL-NH2 (Ac-RRLK(NHNH2)RLLRRLK(NHNH2)RL-NH2; not fully specified; printed as Ac-RRLK*RLLRRLK*RL-NH2; also: K*4,K*11: native or modified lysine (ε-amide to a linker)) [Peptide 13.2]
Hek293 cells; Dodecanal, 5 μM
  mean fluorescence intensity (EGFP mRNA): 678
Hek293 cells; Dodecanal, 10 μM
  mean fluorescence intensity (EGFP mRNA): 520
Hek293 cells; Oleyl, 2.5 μM
  mean fluorescence intensity (EGFP mRNA): 955
Hek293 cells; Oleyl, 5 μM
  mean fluorescence intensity (EGFP mRNA): 666
Hek293 cells; Oleyl, 10 μM
  mean fluorescence intensity (EGFP mRNA): 791
[1]; Dodecanal, 5 μM
  percentage of gene editing, GFP fluorescence intensity decrease (% of reduction): −23%
[1]; Dodecanal, 10 μM
  percentage of gene editing, GFP fluorescence intensity decrease (% of reduction): −26%
[1]; Oleyl, 10 μM
  percentage of gene editing, GFP fluorescence intensity decrease (% of reduction): −10%
[1]; Oleyl, 15 μM
  percentage of gene editing, GFP fluorescence intensity decrease (% of reduction): −13%
A549 cells; Oleyl, 2.5 μM
  mean fluorescence intensity (EGFP mRNA): 136
A549 cells; Oleyl, 5 μM
  mean fluorescence intensity (EGFP mRNA): 160
A549 cells; Oleyl, 10 μM
  mean fluorescence intensity (EGFP mRNA): 22

## Ac-RRLK*RLLRRLK*RLK*RRL-NH2 (Ac-RRLK(NHNH2)RLLRRLK(NHNH2)RLK(NHNH2)RRL-NH2; not fully specified; printed as Ac-RRLK*RLLRRLK*RLK*RRL-NH2; also: K*4,K*11,K*14: native or modified lysine (ε-amide to a linker)) [Peptide 17.3]
[1]; Palmitoleyl, 5 μM
  percentage of gene editing, GFP fluorescence intensity decrease (% of reduction): −19%
[1]; Palmitoleyl, 10 μM
  percentage of gene editing, GFP fluorescence intensity decrease (% of reduction): −32%
[1]; Palmitoleyl, 15 μM
  percentage of gene editing, GFP fluorescence intensity decrease (% of reduction): −34%
[1]; Petroselinyl, 5 μM
  percentage of gene editing, GFP fluorescence intensity decrease (% of reduction): 2%
[1]; Petroselinyl, 10 μM
  percentage of gene editing, GFP fluorescence intensity decrease (% of reduction): −37%
A549 cells; Myristoleyl, 2.5 μM
  mean fluorescence intensity (EGFP mRNA): 563
A549 cells; Myristoleyl, 5 μM
  mean fluorescence intensity (EGFP mRNA): 309
A549 cells; Petroselinyl, 2.5 μM
  mean fluorescence intensity (EGFP mRNA): 791
A549 cells; Petroselinyl, 5 μM
  mean fluorescence intensity (EGFP mRNA): 440
A549 cells; Petroselinyl, 10 μM
  mean fluorescence intensity (EGFP mRNA): 274
HCT116 cells; Dodecanal, 5 μM
  mean fluorescence intensity (EGFP mRNA): 130
HCT116 cells; Dodecanal, 10 μM
  mean fluorescence intensity (EGFP mRNA): 312
HCT116 cells; Myristoleyl, 2.5 μM
  mean fluorescence intensity (EGFP mRNA): 570
HCT116 cells; Myristoleyl, 5 μM
  mean fluorescence intensity (EGFP mRNA): 247
HCT116 cells; Petroselinyl, 2.5 μM
  mean fluorescence intensity (EGFP mRNA): 373
HCT116 cells; Petroselinyl, 5 μM
  mean fluorescence intensity (EGFP mRNA): 168
HCT116 cells; Petroselinyl, 10 μM
  mean fluorescence intensity (EGFP mRNA): 66

Reference: patent publication US20250304623A1, “PEPTIDES FOR INTRACELLULAR DELIVERY” (UNIVERSIDADE DE SANTIAGO DE COMPOSTELA, priority 2022, published 2025)
